# Measured values taken from patent US11479533B2, “Inhibitors of Rho associated coiled-coil containing protein kinase” (KADMON CORPORATION, LLC, priority 2017, dated 2022).
# Tests used:
# [1] = target: recombinant ROCK1 (amino acids 1-535) (Homo sapiens (Human), UniProt Q13464); assay: Z'-lyte kinase assay, ROCK1; format: biochemical
# Procedure: Determination of compounds ROCK inhibitory activity in vitro (Z'lyte assay): recombinant ROCK1 (amino acids 1-535) and ROCK2 (amino acids 1-552) proteins were purchased from ThermoFisher Scientific. Compounds activities were measured by Z'-lyte kinase kit (ThermoFisher Scientific) and IC50s were calculated.
# Compounds activities were measured by Z'-lyte kinase kit (ThermoFisher Scientific). […] IC50s were calculated using the GraphPad Prism software with kinase activities data that were collected from 9 points serial dilution of compounds treatment. The ROCK inhibition in A7R5 cells and NIH3T3 (Acta2-Luc) cells was performed as described above.
# The percent inhibition rate was calculated by normalizing the kinase activity value obtained with compound treatment against DMSO control value and then applied to the equation, […]. IC50's were calculated using the nonlinear regression curve fit function of the GraphPad Prism software with kinase activities data measured with 9 points 2-fold serial dilution of compounds treatment.
# [2] = system: human oligodendrocyte/neuron progenitor cells; assay: Neurite outgrowth and differentiation of human oligodendrocyte/neuron progenitors; format: cell-based
# Procedure: Thawing and proliferation of human oligodendrocyte/neuron progenitor cells (OPCs). Cryopreserved human oligodendrocyte/neuron progenitors (Millipore Cat. No. CS204496) were recovered and cultured on maltrigel (BD Cat. No. 356324) coated T-25 flask in expansion media containing OPC/neuron basal medium, N21 medium supplement, recombinant human bFGF, PDGF-AA and NT-3. When cells reached 80% confluent, 3 ml of Accutase was applied (Millipore SCR005) to passage cells at 1:4 ratio. Sub-cultured cells were maintained in expansion media for proliferation.
# Spontaneous differentiation of human oligodendrocyte/neuron progenitors in 24-well and 96-well plates. Coat plate with 10 μg/ml poly-L-ornithine (Sigma Cat. No. P4957) overnight at room temperature. Remove the poly-L-ornithine solution and rinse the plate with 1×PBS, add 10 μg/ml laminin (Millipore Cat. No. CC095) and incubate at 37° C. for at least 2 hours. Seed cells on the coated plates in expansion media and allowed to attach overnight. The next day expansion media was removed and replaced with freshly prepared spontaneous differentiation media only containing OPC/neuron basal media and N21 media supplement. For 14 day culture, differentiation media was replaced every 3-4 days. Cells were imaged and neurite length was analyzed by IncuCyte S3 Live Cell Analysis System every 4 hours. After 14 days of differentiation, cells were fixed by 4% paraformaldehyde and stained with DAPI and Neuron-specific ß-III tubulin antibody (R&D systems, NL1195R).
# [3] = system: human oligodendrocyte/neuron progenitor cells; assay: Chondroitin Sulfate Proteoglycan (CSPG) assay on human oligodendrocyte/neuron progenitors; format: cell-based; conditions: 1 μM and 3 μM, 72 hour
# Procedure: Chondroitin Sulfate Proteoglycan (CSPG) assay on human oligodendrocyte/neuron progenitors in 96-well plate. […] Cells were seeded on the coated plates at a density of 6,000 cells per well in expansion media. The following day the expansion media was replaced with fresh spontaneous differentiation media containing testing compounds. Cells were imaged and neurite length was analyzed by IncuCyte S3 Live Cell Analysis System every 4 hours.
# [4] = system: bleomycin induced lung fibrosis; assay: Bleomycin induced lung fibrosis in mice (therapeutic administration); format: in vivo, mouse; conditions: oral once daily Day 7 to Day 20
# Procedure: Bleomycin induced lung fibrosis in mice (therapeutic administration): Male C57B/L6 mice were housed for acclimation for no less than 7 days. After acclimation period, animals were randomly assigned to treatment groups. On day 0, mice were anesthetized with 5% isoflurane by inhalation for 10-15 mins and then suspended by their front teeth on a wire attached to a fixed animal operating plate. 50 μL of saline or bleomycin solution was administered via intratracheal instillation. Mice in treatment groups were intratracheally instilled with bleomycin hydrochloride (BLM) 2.0 U/kg (mg/kg) in sterile saline. On day 7 following bleomycin administration, half of the animals in vehicle group were sacrificed to establish a baseline for the level of fibrosis at the treatment initiation. Mice in normal control group received saline by p.o. once daily from Day 7 to Day 20. Treatment group mice received the compound dosed orally once daily from Day 7 to Day 20. On Day 20, 2-3 hours posted the last dose, all mice were sacrificed. Lungs were gently lavaged via the tracheal cannula with 0.8 mL of PBS containing 1% BSA and 0.6 mM EDTA. […] The activity of ROCK inhibitors in attenuating pulmonary fibrosis in a therapeutic dosing setting was assessed in a bleomycin-induced model, following intratracheal bleomycin installation to induce lung tissue damage and consequent fibrosis of the lung. […]
# [5] = system: histamine-induced vascular permeability; assay: Histamine-induced vascular permeability model in mice; format: in vivo, mouse; conditions: single oral dose 1 hr. prior to histamine injection
# Procedure: Histamine-induced vascular permeability model in mice: 7-8 weeks old Balb/c female mice were acclimated at least 3 days, and randomly assigned to groups. Animals were injected i.v. with 1% Evans Blue at a dose 100 μl/mouse. 10 minutes later animals in disease groups were given 1 μg of histamine in 20 μl PBS intradermally on the back and sacrificed 20 minutes after administration. 20 μL PBS were injected intradermal into the animal back in sham control. Vehicle and test articles were dosed via oral gavage accordingly. Positive control salbutamol was administered 15 minutes before Evans blue. 20 minutes post challenge with histamine, animals were euthanized. The skin was then inverted, the lesion diameters were measured. The area of the lesion was calculated and expressed in square millimeters. Following diameter measurements, Evan's Blue dye was extracted from the skin tissue and the optical density was measured. Data are calculated against a spiked in Evan's Blue standard curve. The extent of compound efficacy was quantitated by calculating both the overall skin spot area and the amount of Evans Blue dye permeating the skin. 20 Minutes post challenge with histamine, animals were euthanized, the lesion diameters were measured. The area of the lesion was calculated and expressed in square millimeters. […]
# recombinant ROCK1 (amino acids 1-535), sequence (Q13464 1-535): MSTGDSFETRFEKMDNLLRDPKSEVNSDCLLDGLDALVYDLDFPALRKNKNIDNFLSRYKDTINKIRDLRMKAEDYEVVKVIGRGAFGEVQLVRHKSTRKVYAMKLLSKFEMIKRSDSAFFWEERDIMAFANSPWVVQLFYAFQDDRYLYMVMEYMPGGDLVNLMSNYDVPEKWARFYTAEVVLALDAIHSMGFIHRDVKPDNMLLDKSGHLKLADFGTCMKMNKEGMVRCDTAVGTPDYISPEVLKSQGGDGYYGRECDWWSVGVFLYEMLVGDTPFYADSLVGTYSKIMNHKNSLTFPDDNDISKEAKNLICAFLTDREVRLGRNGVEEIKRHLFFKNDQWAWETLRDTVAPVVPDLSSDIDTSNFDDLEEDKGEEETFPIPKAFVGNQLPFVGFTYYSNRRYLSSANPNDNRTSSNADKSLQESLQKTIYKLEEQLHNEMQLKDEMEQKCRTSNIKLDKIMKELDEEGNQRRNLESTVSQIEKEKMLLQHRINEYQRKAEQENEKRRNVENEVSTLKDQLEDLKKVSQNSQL
compound,measurement,setting,value
"CNC(C(=O)Nc1ccc(-c2cn[nH]c2)cc1)c1cccc(OC)c1 (stereo not drawn) [Example 2, N-(4-(1H-pyrazol-4-yl)phenyl)-2-(3-methoxyphenyl)-2-(methylamino)acetamide]",IC50,[1],0.017 µM
same,neuronal differentiation and maturation,"[2]; 14 days culture, Beta III tubulin",facility neuronal differentiation and maturation
same,neurite length,"[2]; various concentrations, 3 days culture",significantly increase neurite length
same,CSPG mediated neurite outgrowth arrest,[3],significantly counteract
same,collagen amounts in the lungs (Masson's trichrome),[4],significantly lower
same,vascular permeability induced by histamine (Evan's Blue extravasation),[5],blocked the vascular permeability induced by histamine in a dose dependent manner
